Results: patent publication US9694027B2, “Pyrazole derivative and use thereof for medical purposes” (KISSEI PHARMACEUTICAL CO. LTD., priority 2012, dated 2017)

System: patients with chronic constipation
Assay: Clinical trial in patients with chronic constipation (Example 5)
Assay type: in vivo, human
Experimental: After observation for 2 weeks, Compound 2 or a placebo was administered orally after eating to 79 patients with chronic constipation for 4 weeks. Patients who had steady symptoms for long periods were selected as constipation patients using diagnostic criteria of functional constipation based on Rome III as a reference.
2 mg TID group: administration of 2 mg of Compound 2, 3 times daily • (after breakfast, after lunch, after dinner)
20 mg QD group: administration of 20 mg of Compound 2, 1 time daily • (after breakfast)
20 mg BID group: administration of 20 mg of Compound 2, 2 times daily • (after breakfast, after dinner)
20 mg TID group: administration of 20 mg of Compound 2, 3 times daily • (after breakfast, after lunch, after dinner)
For the administration of Compound 2, tablets containing 1 or 10 mg in free drug equivalent of Compound 2 were used.
If the subjects complained that further administration of 2 tablets each time was difficult due to the increase in the frequency of spontaneous bowel movements or softened stool form causing problems in daily life, the dose was switched to 1 tablet each time in the week 1 visit or week 2 visit by the doctor and the administration was continued.

`Cc1cc(OCCCNCC(C)(C)C(N)=O)ccc1Cc1c(O[C@@H]2O[C@H](CO)[C@@H](O)[C@H](O)[C@H]2O)n[nH]c1C(C)C.Cc1cc(OCCCNCC(C)(C)C(N)=O)ccc1Cc1c(O[C@@H]2O[C@H](CO)[C@@H](O)[C@H](O)[C@H]2O)n[nH]c1C(C)C.O=C(O)CCCCCCCCC(=O)O` [Compound 2, bis[3-(3-{4-[3-(β-D-glucopyranosyloxy)-5-isopropyl-1H-pyrazol-4-ylmethyl]-3-methylphenoxy}propylamino)-2,2-dimethylpropionamide]monosebacate] was tested, and the Subjects with hypoglycemia (all groups administered, 4 weeks) was “no subjects with hypoglycemia were reported”, the “Frequency of spontaneous bowel movements per week” value (“Frequency … per week” below) (subject 1, 2 mg TID, administration week 1, observation period 1.1) was 7.0 time/week and the “Bristol Stool Form Scale” value (subject 1, 2 mg TID, administration week 1, observation period 1.5) was 3.7 mean/week. The “Frequency … per week” value (subject 1, 2 mg TID, administration week 2, observation period 1.1) was 7.0 time/week, the “Bristol Stool Form Scale” value (subject 1, 2 mg TID, administration week 2, observation period 1.5) was 3.7 mean/week and the “Frequency … per week” value (subject 1, 2 mg TID, administration week 3, observation period 1.1) was 11.0 time/week. The “Bristol Stool Form Scale” value (subject 1, 2 mg TID, administration week 3, observation period 1.5) was 4.1 mean/week, the “Frequency … per week” value (subject 1, 2 mg TID, administration week 4, observation period 1.1) was 10.5 time/week and the “Bristol Stool Form Scale” value (subject 1, 2 mg TID, administration week 4, observation period 1.5) was 3.8 mean/week. The “Frequency … per week” value (subject 2, 20 mg QD, administration week 1, observation period 1.8) was 12.0 time/week, the “Bristol Stool Form Scale” value (subject 2, 20 mg QD, administration week 1, observation period 3.0) was 4.6 mean/week and the “Frequency … per week” value (subject 2, 20 mg QD, administration week 2, observation period 1.8) was 13.0 time/week. For the same compound, the “Bristol Stool Form Scale” value (subject 2, 20 mg QD, administration week 2, observation period 3.0) was 4.0 mean/week, the “Frequency … per week” value (subject 2, 20 mg QD, administration week 3, observation period 1.8) was 8.0 time/week and the “Bristol Stool Form Scale” value (subject 2, 20 mg QD, administration week 3, observation period 3.0) was 3.4 mean/week. The “Bristol Stool Form Scale” value (subject 3, 20 mg BID switched to 10 mg 2 times daily after 1 week, administration week 2, observation period 2.0) was 4.0 mean/week, the “Frequency … per week” value (subject 3, 20 mg BID switched to 10 mg 2 times daily after 1 week, administration week 2, observation period 2.2) was 6.0 time/week and the “Bristol Stool Form Scale” value (subject 3, 20 mg BID switched to 10 mg 2 times daily after 1 week, administration week 3, observation period 2.0) was 4.3 mean/week. The “Frequency … per week” value (subject 3, 20 mg BID switched to 10 mg 2 times daily after 1 week, administration week 3, observation period 2.2) was 6.0 time/week, the “Bristol Stool Form Scale” value (subject 3, 20 mg BID switched to 10 mg 2 times daily after 1 week, administration week 4, observation period 2.0) was 4.2 mean/week and the “Frequency … per week” value (subject 3, 20 mg BID switched to 10 mg 2 times daily after 1 week, administration week 4, observation period 2.2) was 5.0 time/week. The “Bristol Stool Form Scale” value (subject 3, 20 mg BID, administration week 1, observation period 2.0) was 5.9 mean/week and the “Frequency … per week” value (subject 3, 20 mg BID, administration week 1, observation period 2.2) was 21.0 time/week.
